Assay results: article PMC7516806, “Hybrid Antimicrobial Peptide Targeting Staphylococcus aureus and Displaying Anti-infective Activity in a Murine Model” (Frontiers in Microbiology, 2020)

Legend:
[1] = test system: Staphylococcus aureus 29213; test: Bacterial resistance development, serial passaging; type: cell-based; conditions: serial passage at sub-MIC for 15 days
Source text: Staphylococcus aureus 29213 was employed to assess the development of resistance by the serial passaging method, as previously described ([Lyu et al., 2017]). Minimum inhibitory concentration testing was first conducted for all of the compounds to be tested, as described above. S. aureus was harvested from 96-well plates of sub-MIC levels, diluted in MHB to a concentration of 2–7 × 10^5 CFU/mL, and then subjected to MIC determination for up to 15 days. The change in MIC values determines the development of antibiotic resistance in S. aureus.

[2] = test system: S. aureus 29213; test: Mouse model of subcutaneous infection; type: in vivo, ICR mice; conditions: 80× MIC
Experimental: (§1) To assess the antimicrobial activity of the peptide in vivo, a mouse model of subcutaneous infection was used ([Huang et al., 2011a]; [Omolo et al., 2017]). Female Institute for Cancer Research (ICR) mice (SPF, 20–25 g) were purchased from WeiTonglihua Co., Ltd. (Beijing, China), with eight animals per group. The mice were shaved on their backs and disinfected. S. aureus 29213 (100 μL) at a concentration of 1 × 10^8 CFU/mL was injected into the superficial skin of the mice. The mice were divided into four groups (n = 4), as follows: S. aureus + saline, S. aureus + S2 (80× MIC, 100 μL), S. aureus + vancomycin (Van) (80× MIC, 100 μL), and saline. S2, vancomycin, and saline were injected at the same site 1 h after infection. The mice were monitored over 24 h in an environmentally controlled room at 25 ± 1°C and 55 ± 5% relative humidity with a 12 h light/dark cycle.
(§2) To image the infected skin tissues, the mice were euthanized 24 h after the injection of S. aureus. Samples were fixed in 4% buffered paraformaldehyde and subjected to hematoxylin/eosin (HE) staining. The antimicrobial activity in vivo was determined by colony counting of infected skin samples. Skin homogenates were serially diluted in saline and incubated at 37°C for 24 h.

[3] = test system: IL-6; test: Cytokine ELISA in infected skin; type: in vivo, ICR mice; conditions: 24 h after treatment, P < 0.05
Experimental: as §1
(§3) The mice were treated as described above. Skin samples were treated according to the manufacturer’s instructions. The levels of tumor necrosis factor-alpha (TNF-α), interleukin-6 (IL-6), and granulocyte-macrophage colony-stimulating factor (GM-CSF) in infected skin were measured using enzyme-linked immunosorbent assay (ELISA) kits following the manufacturer’s instructions.

[4] = test system: TNF-α; test: Cytokine ELISA in infected skin; type: in vivo, ICR mice; conditions: 24 h after treatment, P < 0.05
Experimental: as §1, §3

[5] = test system: S. aureus 29213; test: Histology (HE) of infected skin tissue; type: in vivo, ICR mice; conditions: 24 h after injection of S. aureus
Experimental: as §1, §2

Molecule	change in MIC value, 15th day versus first day [1]	decrease in bacterial colonies at infection site versus control group ([2]; 100 μL injected at the infected site 1 h after infection, skin homogenate colony count after 24 h, P < 0.01)	ulceration (lesion) size, length × width ([2]; 100 μL, 1 h after infection)	IL-6 generation in infected skin [3]	TNF-α generation in infected skin [4]	histomorphological changes of skin tissue (HE) [5]
penicillin [reference compound]	16 fold					
CN[C@H](CC(C)C)C(=O)N[C@H]1C(=O)N[C@@H](CC(N)=O)C(=O)N[C@H]2C(=O)N[C@H]3C(=O)N[C@H](C(=O)N[C@H](C(=O)O)c4cc(O)cc(O)c4-c4cc3ccc4O)[C@H](O)c3ccc(c(Cl)c3)Oc3cc2cc(c3O[C@@H]2O[C@H](CO)[C@@H](O)[C@H](O)[C@H]2O[C@H]2C[C@](C)(N)[C@H](O)[C@H](C)O2)Oc2ccc(cc2Cl)[C@H]1O [vancomycin, reference compound]		10 fold	significantly reduced ulceration sizes	suppressed	suppressed	good recovery
